According to BigSolDB 2.1:

O=C(Nc1ccc(Cl)cc1)Nc1ccc(Cl)c(Cl)c1
solubility (mole fraction)
Conditions | 288.15 K | 293.15 K | 298.15 K | 303.15 K | 308.15 K | 313.15 K | 318.15 K
in ethylene glycol | 4.25e-06 | 5.89e-06 | 8.3e-06 | 1.02e-05 | 1.38e-05 | 2.14e-05 | 2.64e-05
in water | 1.96e-09 | 2.38e-09 | 2.85e-09 | 3.78e-09 | 5.72e-09 | 7.48e-09 | 9.28e-09
